Measured values as given in PubChem BioAssay AID248 (DTP/NCI, 2004).
Values joined by “and” are separate entries in the source; they are usually repeats but may differ in a detail not shown here. Equal entries are not always repeated. Inconclusive results and toxic doses are left out. Cut-off read from the data, not from the text of the source: active = T/C of 150% or more; inactive = T/C below 125%.

Test system: L1210 leukemia ip in BDF1 mice, survival T/C
Assay: NCI In Vivo Anticancer Drug Screen. Data for tumor model L1210 Leukemia (intraperitoneal) in B6D2F1 (BDF1) mice
Details: endpoint: mean survival time, higher = longer survival
Summary of the method: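 Antitumor effect is assessed in tumor-bearing animals. Survival in the compound arm is compared with a vehicle-dosed control arm and expressed as their quotient.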

[1] = dose: 25.0 mg/kg/injection, schedule: Q01DX001 (ip), vehicle: saline with Tween-80
[2] = dose: 50.0 mg/kg/injection, schedule: Q01DX001 (ip), vehicle: saline with Tween-80
[3] = dose: 100.0 mg/kg/injection, schedule: Q01DX001 (ip), vehicle: saline with Tween-80
[4] = dose: 100.0 mg/kg/injection, schedule: Q01DX009 (ip), vehicle: Klucel (hydroxypropylcellulose) (HPC)
[5] = dose: 200.0 mg/kg/injection, schedule: Q01DX009 (ip), vehicle: Klucel (hydroxypropylcellulose) (HPC)
[6] = dose: 400.0 mg/kg/injection, schedule: Q01DX009 (ip), vehicle: Klucel (hydroxypropylcellulose) (HPC)
[7] = dose: 12.5 mg/kg/injection, schedule: Q01DX009 (ip), vehicle: Klucel (hydroxypropylcellulose) (HPC)
[8] = dose: 12.5 mg/kg/injection, schedule: Q04DX003 (ip), vehicle: Klucel (hydroxypropylcellulose) (HPC)
[9] = dose: 25.0 mg/kg/injection, schedule: Q04DX003 (ip), vehicle: Klucel (hydroxypropylcellulose) (HPC)
[10] = dose: 100.0 mg/kg/injection, schedule: Q01DX001 (ip), vehicle: carboxymethylcellulose (CMC)
[11] = dose: 200.0 mg/kg/injection, schedule: Q01DX001 (ip), vehicle: carboxymethylcellulose (CMC)
[12] = dose: 25.0 mg/kg/injection, schedule: Q04DX003 (ip), vehicle: saline with Tween-80
[13] = dose: 50.0 mg/kg/injection, schedule: Q04DX003 (ip), vehicle: saline with Tween-80
[14] = dose: 100.0 mg/kg/injection, schedule: Q04DX003 (ip), vehicle: saline with Tween-80
[15] = dose: 200.0 mg/kg/injection, schedule: Q01DX009 (ip), vehicle: saline with Tween-80
[16] = dose: 200.0 mg/kg/injection, schedule: Q04DX003 (ip), vehicle: saline with Tween-80
[17] = dose: 400.0 mg/kg/injection, schedule: Q04DX003 (ip), vehicle: saline with Tween-80
[18] = dose: 100.0 mg/kg/injection, schedule: Q04DX003 (ip), vehicle: Klucel (hydroxypropylcellulose) (HPC)
[19] = dose: 200.0 mg/kg/injection, schedule: Q04DX003 (ip), vehicle: Klucel (hydroxypropylcellulose) (HPC)
[20] = dose: 400.0 mg/kg/injection, schedule: Q04DX003 (ip), vehicle: Klucel (hydroxypropylcellulose) (HPC)
[21] = dose: 100.0 mg/kg/injection, schedule: Q01DX001 (ip), vehicle: saline
[22] = dose: 200.0 mg/kg/injection, schedule: Q01DX001 (ip), vehicle: saline
[23] = dose: 400.0 mg/kg/injection, schedule: Q01DX001 (ip), vehicle: saline

Measured: T/C

NC1=NC=NCN1c1ccc(N)cc1
inactive: [1] 96 % of control | [2] 102 % of control | [3] 104 % of control

COc1ccccc1C=O
inactive: [4] 90 % of control | [5] 90 % of control | [6] 106 % of control

O=C(O)c1cccnc1C(=O)O.[Cu+2]
inactive: dose: 3.12 mg/kg/injection, schedule: Q01DX009 (ip), vehicle: Klucel (hydroxypropylcellulose) (HPC) 107 % of control | dose: 6.25 mg/kg/injection, schedule: Q01DX009 (ip), vehicle: Klucel (hydroxypropylcellulose) (HPC) 94 % of control | dose: 6.25 mg/kg/injection, schedule: Q04DX003 (ip), vehicle: Klucel (hydroxypropylcellulose) (HPC) 94 % of control and 95 % of control | dose: 12.5 mg/kg/injection, schedule: Q01DX001 (ip), vehicle: other 108 % of control | [7] 92 % of control | [8] 101 % of control and 97 % of control | dose: 25.0 mg/kg/injection, schedule: Q01DX001 (ip), vehicle: other 89 % of control | [9] 95 % of control

CN1CCN(Cc2c(O)ccc3c4c(c(=O)oc23)CCCC4)CC1
inactive: [10] 98 % of control | [11] 93 % of control

N#C/C(=C1/N=C(N)NC1=O)c1ccc(Cl)cc1
inactive: [1] 92 % of control | [2] 89 % of control | [3] 94 % of control

CCCSCCCCSCCC
inactive: [12] 115 % of control | [13] 104 % of control | dose: 100.0 mg/kg/injection, schedule: Q01DX009 (ip), vehicle: saline with Tween-80 100 % of control | [14] 102 % of control | [15] 109 % of control | [16] 92 % of control | dose: 400.0 mg/kg/injection, schedule: Q01DX009 (ip), vehicle: saline with Tween-80 91 % of control | [17] 95 % of control

COC(=O)C1C2CC3c4[nH]c5ccc(OC)cc5c4CCN3CC2CC(OC(=O)c2cc(OC)c(OC)c(OC)c2)C1OC (stereo not given)
inactive: dose: 10.0 mg/kg/injection, schedule: Q04DX003 (ip), vehicle: Klucel (hydroxypropylcellulose) (HPC) 102 % of control | dose: 20.0 mg/kg/injection, schedule: Q04DX003 (ip), vehicle: Klucel (hydroxypropylcellulose) (HPC) 98 % of control | dose: 22.81 mg/kg/injection, schedule: Q01DX009 (ip), vehicle: Klucel (hydroxypropylcellulose) (HPC) 111 % of control | dose: 40.0 mg/kg/injection, schedule: Q04DX003 (ip), vehicle: Klucel (hydroxypropylcellulose) (HPC) 114 % of control | dose: 45.62 mg/kg/injection, schedule: Q01DX009 (ip), vehicle: Klucel (hydroxypropylcellulose) (HPC) 91 % of control | dose: 80.0 mg/kg/injection, schedule: Q04DX003 (ip), vehicle: Klucel (hydroxypropylcellulose) (HPC) 96 % of control | dose: 91.25 mg/kg/injection, schedule: Q01DX009 (ip), vehicle: Klucel (hydroxypropylcellulose) (HPC) 94 % of control | dose: 160.0 mg/kg/injection, schedule: Q04DX003 (ip), vehicle: Klucel (hydroxypropylcellulose) (HPC) 93 % of control | dose: 240.0 mg/kg/injection, schedule: Q04DX003 (ip), vehicle: Klucel (hydroxypropylcellulose) (HPC) 107 % of control | dose: 365.0 mg/kg/injection, schedule: Q04DX003 (ip), vehicle: Klucel (hydroxypropylcellulose) (HPC) 102 % of control

CN(C)c1ccc2c(c1)C(Br)c1ccccc1-2 (stereo not given)
inactive: [4] 106 % of control | [18] 94 % of control | [5] 107 % of control | [19] 96 % of control | [20] 97 % of control

CCCCC(=O)N1C(=O)Cc2ccccc21
inactive: dose: 50.0 mg/kg/injection, schedule: Q04DX002 (ip), vehicle: Klucel (hydroxypropylcellulose) (HPC) 97 % of control | dose: 100.0 mg/kg/injection, schedule: Q04DX002 (ip), vehicle: Klucel (hydroxypropylcellulose) (HPC) 97 % of control | dose: 200.0 mg/kg/injection, schedule: Q04DX002 (ip), vehicle: Klucel (hydroxypropylcellulose) (HPC) 97 % of control

CC1(C)C/C(=C\c2cccc(Cl)c2)C(=O)c2ccccc21
inactive: [18] 108 % of control | [19] 106 % of control | [20] 110 % of control

NC(=S)N/N=C/c1cnccn1
inactive: dose: 13.0 mg/kg/injection, schedule: Q03HX032 (ip), vehicle: saline with Tween-80 98 % of control | dose: 20.0 mg/kg/injection, schedule: Q03HX032 (ip), vehicle: saline with Tween-80 101 % of control | dose: 29.0 mg/kg/injection, schedule: Q03HX032 (ip), vehicle: saline with Tween-80 113 % of control | dose: 44.0 mg/kg/injection, schedule: Q03HX032 (ip), vehicle: saline with Tween-80 115 % of control | [15] 86 % of control

C=CCNC(=S)NCC=C
inactive: [4] 102 % of control | [18] 102 % of control | [5] 100 % of control | [19] 104 % of control | [6] 100 % of control | [20] 102 % of control

c1ccc2c(c1)CC([CH2][Hg][CH2]C1Cc3ccccc3O1)O2 (stereo not given)
inactive: [10] 101 % of control | [11] 95 % of control

O=C(O)c1cccc2cccc(C3SCCS3)c12
inactive: [14] 101 % of control | [16] 104 % of control | [17] 90 % of control

CC1(C)OC(CCl)C2OC(C)(C)OC(CCl)C2O1 (stereo not given)
inactive: [21] 93 % of control | [22] 88 % of control | [23] 104 % of control

Cc1ccc(C(/C=C/c2ccccc2)=N\N=C(N)N)cc1
inactive: dose: 15.0 mg/kg/injection, schedule: Q01DX Z (ip), vehicle: methylcellulose (MC) 87 % of control | dose: 30.0 mg/kg/injection, schedule: Q01DX Z (ip), vehicle: methylcellulose (MC) 87 % of control | dose: 30.0 mg/kg/injection, schedule: Q01DX Z (oral), vehicle: methylcellulose (MC) 93 % of control | dose: 60.0 mg/kg/injection, schedule: Q01DX Z (ip), vehicle: methylcellulose (MC) 97 % of control | dose: 60.0 mg/kg/injection, schedule: Q01DX Z (oral), vehicle: methylcellulose (MC) 87 % of control | dose: 120.0 mg/kg/injection, schedule: Q01DX Z (oral), vehicle: methylcellulose (MC) 95 % of control | dose: 240.0 mg/kg/injection, schedule: Q01DX Z (oral), vehicle: methylcellulose (MC) 95 % of control | dose: 480.0 mg/kg/injection, schedule: Q01DX Z (oral), vehicle: methylcellulose (MC) 100 % of control

CC1(C)N=C(N)N=C(N)N1c1ccc(CCc2ccccc2)cc1
inactive: [7] 97 % of control | [8] 98 % of control | dose: 12.5 mg/kg/injection, schedule: Q04DX003 (ip), vehicle: saline with Tween-80 101 % of control | dose: 25.0 mg/kg/injection, schedule: Q01DX009 (ip), vehicle: Klucel (hydroxypropylcellulose) (HPC) 93 % of control | [9] 104 % of control | [12] 102 % of control | dose: 50.0 mg/kg/injection, schedule: Q04DX003 (ip), vehicle: Klucel (hydroxypropylcellulose) (HPC) 93 % of control | [13] 104 % of control

CCOc1ccc(OCC)c(NC(=O)Nc2cc([N+](=O)[O-])ccc2OC)c1
inactive: dose: 50.0 mg/kg/injection, schedule: Q01DX009 (ip), vehicle: Klucel (hydroxypropylcellulose) (HPC) 114 % of control | [4] 93 % of control | [5] 96 % of control

O=C1c2c(ccc3ccccc23)CCC1CN1CCCCC1 (stereo not given)
inactive: [21] 102 % of control | [22] 108 % of control | [23] 112 % of control

CC(C(CC(=O)c1ccccc1)c1ccccc1)[N+](=O)[O-] (stereo not given)
inactive: dose: 100.0 mg/kg/injection, schedule: Q01DX001 (ip), vehicle: Klucel (hydroxypropylcellulose) (HPC) 124 % of control | [14] 98 % of control | dose: 200.0 mg/kg/injection, schedule: Q01DX001 (ip), vehicle: Klucel (hydroxypropylcellulose) (HPC) 97 % of control | [16] 97 % of control | dose: 400.0 mg/kg/injection, schedule: Q01DX001 (ip), vehicle: Klucel (hydroxypropylcellulose) (HPC) 96 % of control | [17] 92 % of control
